Test results reported in patent US20150315241A1, “Antibiotic Peptides” (priority 2007, published 2015).
≈ marks a conversion by molar mass, not a printed value. Like-named read-outs stand apart in the source and are kept apart here. Where a SMILES comes first, the peptide text is derived from it. Where no end group is shown, it is not given here. [ ]: non-standard residue; d: D form. Hyp = O=C(O)[C@@H]1C[C@@H](O)CN1; Orn = NCCC[C@H](N)C(=O)O

Columns and labels:
[1] = tested on: M. luteus ATCC 10240; assay type: cell-based, Micrococcus luteus
Procedure, shortened: (§1)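 Bacteria grown overnight in NB at 37° C. were adjusted to 5×10^6 CFU/mL in 1% TSB and mixed 1:1 with a two-fold peptide series (final 125 μg/mL–60 ng/mL). After 20 hrs at 37° C., A595 was read; triplicates.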

[2] = tested on: B. subtilis 347; assay type: cell-based, Bactillus subtillis
Procedure, shortened: as §1

[3] = tested on: Mycobacterium vaccae; assay type: cell-based
Description: The minimal inhibition concentrations (MIC) of the apidaecin-derived peptides and peptide-derivatives were determined by a growth inhibition assay using a serial peptide dilution in sterilized round-bottom 96-well plates (polystyrene, U-bottom, Greiner Bio-One GmbH) with a final volume of 100 μL per well. The bacteria, e.g., E. coli BL21 A1, were grown in nutrient broth (NB, Carl Roth GmbH+Co. KG, Karlsruhe, Germany) at 37° C. over night. To each well of the 96-well plate, 50 μL of the overnight culture adjusted to 5×10^6 CFU/mL in 1% TSB were added. Lyophilized peptides and peptidomimetics were dissolved in 1% TSB (tryptic soy broth) or water to give a final concentration of 250 μg/mL. Fifty μL of the peptide or peptidomimetics solution were added to the first well of a row on the plate and mixed. Fifty μL of the first well containing the peptide solution were transferred to the second well, mixed and again 50 μL transferred to the next well and so on. Thereby, a two-fold dilution series was obtained starting at 250 μg/mL in the first well down to 120 ng/mL in the 12th well of a row giving a final peptide or peptidomimetics concentration from 125 μg/mL (well 1) to 60 ng/mL (well 12). Plates were incubated at 37° C. for 20 hrs. The absorbance was measured at 595 nm using a TECAN micro plate spectrophotometer (Tecan, Germany). All peptides and peptidomimetics were measured in triplicates. Sterilized water was used as a negative control.
The bacteria strains were tested: • Eschericha coli 1103, 10233, BL 21 AI, DC 2, • Klebsiella pneumoniae 681, • Micrococcus luteus ATCC 10240, • Mycobacterium vaccae • Bactillus subtillis 347.

[4] = tested on: E. coli 1103; assay type: cell-based, Escherichia coli
Procedure, shortened: as §1

[5] = tested on: R. radiobatter ATCC 15955; experiment: Growth inhibition assay (MIC); assay type: cell-based, Rhizobium radiobacter
Procedure, shortened: (§2)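 Two-fold serial broth microdilution in 1% TSB, final peptide 125 μg/mL down to 60 ng/mL. Inoculum from overnight nutrient-broth cultures adjusted to 5×10^6 CFU/mL. After 20 hrs at 37° C., growth was read as absorbance at 595 nm; triplicates, sterile water as negative control.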

[6] = tested on: E. coli D31; assay type: cell-based, Escherichia coli; conditions: D31, 20 h
Procedure, shortened: as §2

[7] = tested on: E. coli 45849; experiment: Growth inhibition assay (MIC); assay type: cell-based, Escherichia coli
Procedure, shortened: as §2

[8] = tested on: E. coli DC 2; experiment: Growth inhibition assay (MIC); assay type: cell-based, Escherichia coli; conditions: 1% TSB, 37° C., 20 hrs
Procedure, shortened: as §1

[9] = tested on: E. coli BL 21 AI; experiment: Growth inhibition assay (MIC); assay type: cell-based, Escherichia coli; conditions: 1% TSB, 37° C., 20 hrs
Procedure, shortened: as §1

[10] = in vitro; assay type: in vitro ADME, mouse; conditions: 25% aqueous mouse serum, 37° C.; read-out: Half-life time
Procedure, shortened: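 Peptide or peptidomimetic (0.5 mg/mL aqueous stock) incubated in 25% pooled mouse serum at 37 °C, sampled at 0–6 h, in duplicate. Proteins precipitated with 15% TCA; supernatants neutralized and analyzed by RP-HPLC with 0.1% TFA. Degradation products identified by MALDI-TOF/TOF-MS.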

[11] = tested on: S. typhi S5; assay type: cell-based, Salmonella typhi; conditions: S5, 20 h
Procedure, shortened: as §2

[12] = tested on: K. pneumonia 681; assay type: cell-based, Klebsiella pneumoniae
Procedure, shortened: as §1

[13] = tested on: K. Pneumonia 123132; experiment: Growth inhibition assay (MIC); assay type: cell-based, Klebsiella pneumoniae
Procedure, shortened: as §2

[14] = tested on: K. Pneumonia K6, ATCC 700603; experiment: Growth inhibition assay (MIC); assay type: cell-based, Klebsiella pneumoniae; conditions: multidrug resistant strain; 1% TSB, 37° C., 20 hrs
Procedure, shortened: as §2

[15] = tested on: S. enterica subsp. Enterica serovar. typhi G10215 ATCC 700408; assay type: cell-based, Salmonella enterica; conditions: ATCC 700408, 20 h
Procedure, shortened: as §2

[16] = tested on: E. coli 10233; assay type: cell-based, Escherichia coli; conditions: 10233, 20 h
Procedure, shortened: as §1

[17] = multidrug resistant strain, 1% TSB, 37° C., 20 hrs

Compound | MIC M. luteus ATCC 10240 ([1]; ATCC 10240, 20 h) [µg/mL] | MIC B. subtilis 347 ([2]; 347, 20 h) [µg/mL] | MIC Mycobacterium vaccae ([3]; 20 h) [µg/mL] | MIC E. coli 1103 ([4]; 1103, 20 h) [µg/mL] | MIC R. radiobatter ATCC 15955 [5, 17] [µg/mL] | MIC E. coli D31 [6] [µg/mL] | MIC E. coli 45849 [7, 17] [µg/mL] | MIC E. coli DC 2 [8] [µg/mL] | MIC E. coli BL 21 AI [9] [µg/mL] | half-life at 0.061 mg/mL [10] [min] | MIC S. typhi S5 [11] [µg/mL] | MIC K. pneumonia 681 ([12]; 20 h) [µg/mL] | MIC K. Pneumonia 123132 [13, 17] [µg/mL] | MIC K. Pneumonia K6, ATCC 700603 [14] [µg/mL] | MIC S. enterica subsp. Enterica serovar. typhi G10215 ATCC 700408 [15] [µg/mL] | other results
CC[C@H](C)[C@H](NC(=O)[C@H](Cc1ccc(O)cc1)NC(=O)[C@@H](NC(=O)[C@@H]1CCCN1C(=O)[C@H](CCCNC(=N)N)NC(=O)[C@H](CC(N)=O)NC(=O)[C@H](CC(N)=O)NC(=O)[C@H](CCCN)NC(C)=O)C(C)C)C(=O)N1CCC[C@H]1C(=O)N[C@@H](CCC(N)=O)C(=O)N1CCC[C@H]1C(=O)N[C@@H](CCCNC(=N)N)C(=O)N1CCC[C@H]1C(=O)N1CCC[C@H]1C(=O)N[C@@H](Cc1c[nH]cn1)C(=O)N1CCC[C@H]1C(=O)N[C@@H](CCCNC(=N)N)C(=O)N[C@@H](CC(C)C)C(N)=O [compound 7] (Ac-[Orn]NNRPVYIPQPRPPHPRL-NH2) | 3.91 (≈ 1.77 µM) | >125 | 125 (≈ 56.6 µM) | 1.95 (≈ 0.884 µM) | <0.16 | 4 to 8 | 1 (≈ 0.453 µM) | 3.9 (≈ 1.77 µM) | 0.49 (≈ 0.222 µM) | 15 | 2 (≈ 0.906 µM) | 1.95 (≈ 0.884 µM) | 16 (≈ 7.25 µM) | 64 (≈ 29 µM) | 0.5 to 1 | 
CC[C@H](C)[C@H](NC(=O)[C@H](Cc1ccc(O)cc1)NC(=O)[C@@H](NC(=O)[C@@H]1CCCN1C(=O)[C@H](CCCNC(=N)N)NC(=O)[C@H](CC(N)=O)NC(=O)[C@H](CC(N)=O)NC(=O)[C@@H](N)CCCN)C(C)C)C(=O)N1CCC[C@H]1C(=O)N[C@@H](CCC(N)=O)C(=O)N1CCC[C@H]1C(=O)N[C@@H](CCCNC(=N)N)C(=O)N1CCC[C@H]1C(=O)N1CCC[C@H]1C(=O)N[C@@H](Cc1c[nH]cn1)C(=O)N1CCC[C@H]1C(=O)N[C@@H](CCCNC(=N)N)C(=O)N[C@@H](CC(C)C)C(N)=O [compound 8] (H-[Orn]NNRPVYIPQPRPPHPRL-NH2) | 7.84 (≈ 3.62 µM) | >125 | 125 (≈ 57.7 µM) |  | <0.16 | 2 (≈ 0.924 µM) | <0.25 | 0.98 (≈ 0.453 µM) | 0.24 (≈ 0.111 µM) | 30 | <0.5 | 1.95 (≈ 0.901 µM) | 1 (≈ 0.462 µM) | 16 (≈ 7.39 µM) | <0.25 | 
CC[C@H](C)[C@H](NC(=O)[C@H](CCCNC(=N)N)NC(=O)[C@@H]1CCCN1C(=O)[C@H](Cc1c[nH]cn1)NC(=O)[C@@H]1CCCN1C(=O)[C@@H]1CCCN1C(=O)[C@H](CCCNC(=N)N)NC(=O)[C@@H]1CCCN1C(=O)[C@H](CCCN)NC(=O)[C@@H]1CCCN1C(=O)[C@@H](NC(=O)[C@H](Cc1ccc(O)cc1)NC(=O)[C@@H](NC(=O)[C@@H]1CCCN1C(=O)[C@H](CCCNC(=N)N)NC(=O)[C@H](CC(N)=O)NC(=O)[C@H](CC(N)=O)NC(=O)CN)C(C)C)[C@@H](C)CC)C(N)=O [compound 9] (H-GNNRPVYIP[Orn]PRPPHPRI-NH2) |  |  |  |  |  | 16 (≈ 7.64 µM) |  | 1.95 (≈ 0.931 µM) | 0.49 (≈ 0.234 µM) |  | 2 (≈ 0.955 µM) |  |  | 16 (≈ 7.64 µM) |  | MIC M. luteus ATCC 10240 ([1]; 1% TSB, 37° C., 20 hrs): 1.95 µg/mL (≈ 0.931 µM); MIC B. subtilis 347 ([2]; 1% TSB, 37° C., 20 hrs): >125 µg/mL; MIC Mycobacterium vaccae ([3]; 1% TSB, 37° C., 20 hrs): 125 µg/mL (≈ 59.7 µM); MIC E. coli 1103 ([4]; 1% TSB, 37° C., 20 hrs): 3.9 µg/mL (≈ 1.86 µM); MIC R. radiobatter ATCC 15955 ([5]; ATCC 15955, 20 h): <0.16 µg/mL; MIC E. coli 45849 ([7]; 45849, 20 h): 1 µg/mL (≈ 0.478 µM); MIC K. pneumonia 681 ([12]; 1% TSB, 37° C., 20 hrs): 3.9 µg/mL (≈ 1.86 µM); MIC K. Pneumonia 123132 ([13]; 20 h): 8 µg/mL (≈ 3.82 µM)
CC[C@H](C)[C@H](NC(=O)[C@H](Cc1ccc(O)cc1)NC(=O)[C@@H](NC(=O)[C@@H]1CCCN1C(=O)[C@H](CCCNC(=N)N)NC(=O)[C@H](CC(N)=O)NC(=O)[C@H](CC(N)=O)NC(=O)CN)C(C)C)C(=O)N1CCC[C@H]1C(=O)N[C@@H](CCCNC(=N)N)C(=O)N1C[C@H](O)C[C@H]1C(=O)N[C@@H](CCCNC(=N)N)C(=O)N1CCC[C@H]1C(=O)N1CCC[C@H]1C(=O)N[C@@H](Cc1c[nH]cn1)C(=O)N1CCC[C@H]1C(=O)N[C@@H](CCCNC(=N)N)C(=O)N[C@@H](CC(C)C)C(N)=O [compound 20] (H-GNNRPVYIPR[Hyp]RPPHPRL-NH2) | 1.95 (≈ 0.906 µM) | >125 | 125 (≈ 58.1 µM) | 3.9 (≈ 1.81 µM) | 0.33 (≈ 0.153 µM) | 32 (≈ 14.9 µM) | 1 (≈ 0.465 µM) | 1.95 to 3.91 | 0.49 (≈ 0.228 µM) |  | <0.5 | 3.9 (≈ 1.81 µM) | 4 (≈ 1.86 µM) | 8 (≈ 3.72 µM) |  | 
GNNRPVYIPQPRPPHPRI [compound 1] | 31.25 | >125 | >125 | 1.95 |  | 64 |  | 3.91 | 0.98 |  |  | 15.62 |  | 64 | 2 | MIC E. coli 10233 [16]: 1.95 µg/mL
